Experiment [1] relates to ERK phosphorylation in AGS cells. Briefly: Inhibition of ERK phosphorylation in AGS cells (HTRF method). It is filed as cell-based. The following applies: Homo sapiens, 1 h incubation with compound, phosphorylated ERK/total ERK ratio. As for the experimental part: In the experiment, the inhibitory effect of the compound represented by formula I on the KRAS target was evaluated by assessing the inhibitory effect of the compound on ERK phosphorylation in cells and based on the IC50.
AGS cells (Nanjing Cobioer, CBP60476) were cultured in an RPMI1640 (Hyclone, SH30809.01) complete culture medium containing 10% fetal bovine serum. On the first day of the experiment, the AGS cells were seeded into a 96-well plate with a complete culture medium at a density of 40,000 cells/well, with each well containing 190 µL of a cell suspension. The plate was incubated overnight in a cell incubator at 37 °C with 5% CO2.
The next day, the test compound, serially diluted in a complete culture medium, was added at 10 µL/well. The final concentrations of the compound were 9 concentration points obtained by 5-fold serial dilution from 10 µM. A blank control containing 0.5% DMSO was set. The plate was incubated in a cell incubator at 37 °C with 5% CO2 for 1 h. […]
On the third day, the fluorescence values at an excitation wavelength of 337 nm and emission wavelengths of 665 nm and 620 nm were obtained using an ENVISION multimode microplate reader (PerkinElmer, ENVISION).
The IC50 value for the inhibitory activity of the compound was calculated using Graphpad Prism software based on the compound concentration and the phosphorylated ERK/total ERK ratio. […]

Experiment [2] deals with KRAS protein subtype G12D (Homo sapiens, UniProt P01116, G12D). Briefly: Affinity for KRAS protein subtype G12D by SPR method (Biacore 8K). The following applies: biotinylated Avi-KRAS-G12D, single-cycle kinetic mode, 1:1 model. It is filed as binding. As for the experimental part:
(§1) Biotinylated Avi-KRAS-WT or Avi-KRAS-G12D was diluted to 20 µg/mL with a 1× HBS-P+ (Cat. # BR1006-71) buffer containing 100 mM MgCl2 and then allowed to flow through channel 2 of an SA (Cat. # BR1005-31) biosensor chip for 420 s to obtain a coupling level of approximately 5000-7000 RU. Then samples of the compound were injected sequentially in descending order for 120 s, followed by 720 s of dissociation. The testing was performed using a single-cycle kinetic mode. Reaction signals were detected in real time using a Biacore 8K instrument to obtain association and dissociation curves. After the testing was finished, data analysis was performed using Biacore 8K evaluation software. Data fitting was performed using a 1:1 model, and affinity data were obtained.
A general note: In SPR one partner is held on a chip, and binding of the other changes the refractive index at the surface.

Experiment [3] deals with AGS cells. Briefly: Inhibition of 3D proliferation of AGS cells (CellTiter-Glo 3D). The experiment is classed as cell-based. The following applies: Homo sapiens, 120 h incubation. As for the experimental part: (§2) The inhibitory effect of the compound represented by formula I on the KRAS target was evaluated by assessing the inhibitory effect of the compound represented by formula I on the 3D proliferation of GP2d and AGS cells.
AGS cells (Nanjing Cobioer, CBP60476) were cultured in a complete culture medium, namely an RPMI1640 medium (Hyclone, SH30809.01) containing 10% fetal bovine serum (Corning, 35-076-CV). On the first day of the experiment, the AGS cells were seeded into a 96-well low-adsorption plate (Corning, CLS7007-24EA) with a complete culture medium at a density of 1000 cells/well, with each well containing 90 µL of a cell suspension. The plate was centrifuged at 2000 rpm for 5 min at room temperature and then incubated overnight in a cell incubator at 37 °C with 5% CO2.
The next day, the test compound, serially diluted in a complete culture medium, was added at 10 µL/well. The final concentrations of the compound for GP2d cells were 9 concentration points obtained by 3-fold serial dilution from 1 µM, and the final concentrations of the compound for AGS cells were 9 concentration points obtained by 3-fold serial dilution from 10 µM. A blank control containing 0.5% DMSO was set for both types of cells. The plates were incubated in a cell incubator at 37 °C with 5% CO2 for 120 h. […] The luminescence signal values were obtained using a multimode microplate reader (PerkinElmer, ENVISION). […]
On the technique in general: In ATP-based viability assays light output follows the ATP content of the culture.

Experiment [4] addresses KRAS protein subtype WT (Homo sapiens, UniProt P01116). Briefly: Affinity for KRAS protein subtype WT by SPR method (Biacore 8K). It is filed as binding. The following applies: biotinylated Avi-KRAS-WT, single-cycle kinetic mode, 1:1 model. As for the experimental part: as §1
For experiment [5], the system named is GP2d cells. Briefly: Inhibition of 3D proliferation of GP2d cells (CellTiter-Glo 3D). It is filed as cell-based. The following applies: 120 h incubation. On the procedure:
as §2
GP2d cells (Nanjing Cobioer, CBP60010) were cultured in a complete culture medium, namely a DMEM/high glucose culture medium (Hyclone, SH30243.01) containing 10% fetal bovine serum (Corning, 35-076-CV). On the first day of the experiment, the GP2d cells were seeded into a 96-well low-adsorption plate (Corning, CLS7007-24EA) with a complete culture medium at a density of 1000 cells/well, with each well containing 90 µL of a cell suspension. The plate was centrifuged at 2000 rpm for 5 min at room temperature and then incubated overnight in a cell incubator at 37 °C with 5% CO2.
The next day, the test compound, serially diluted in a complete culture medium, was added at 10 µL/well. The final concentrations of the compound for GP2d cells were 9 concentration points obtained by 3-fold serial dilution from 1 µM, and the final concentrations of the compound for AGS cells were 9 concentration points obtained by 3-fold serial dilution from 10 µM. A blank control containing 0.5% DMSO was set for both types of cells. […] The luminescence signal values were obtained using a multimode microplate reader (PerkinElmer, ENVISION). […]

Among the data in EP4563151A1, “PHARMACEUTICAL COMPOSITION COMPRISING KRAS G12D INHIBITOR” (Jiangsu Hengrui Pharmaceuticals Co., Ltd., priority 2022, dated 2024) are IC50 and Kd values, retold here.

Sequence of KRAS protein subtype WT (P01116 1-188 isoform P01116-2): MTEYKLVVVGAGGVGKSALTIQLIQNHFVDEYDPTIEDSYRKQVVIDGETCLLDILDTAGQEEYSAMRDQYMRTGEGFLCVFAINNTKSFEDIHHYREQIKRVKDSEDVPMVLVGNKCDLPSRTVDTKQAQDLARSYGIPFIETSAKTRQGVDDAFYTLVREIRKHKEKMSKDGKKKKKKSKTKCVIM
Sequence of KRAS protein subtype G12D (P01116 1-188 isoform P01116-2 G12D): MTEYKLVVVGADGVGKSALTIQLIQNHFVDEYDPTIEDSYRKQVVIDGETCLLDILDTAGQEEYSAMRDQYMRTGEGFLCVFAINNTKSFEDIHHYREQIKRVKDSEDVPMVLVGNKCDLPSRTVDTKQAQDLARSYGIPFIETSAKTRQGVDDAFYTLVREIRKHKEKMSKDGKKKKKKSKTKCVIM

On to `CCc1c(F)ccc2cc(O)cc(-c3nc4c5c(nc(OC[C@@]67CCCN6C[C@H](F)C7)nc5c3F)N3C[C@H]5CC[C@H](N5)[C@H]3CO4)c12` [Compound represented by formula I, 5-Ethyl-6-fluoro-4-((5aS,6S,9R)-1-fluoro-12-(((2R,7aS)-2-fluorotetrahydro-1H-pyrrolizin-7a(5H)-yl)methoxy)-5a,6,7,8,9,10-hexahydro-5H-4-oxa-3,10a,11,13,14-pentaaza-6,9-methanonaphtho[1,8-ab]heptalen-2-yl)naphthalen-2-ol], for which the 50% inhibitory concentration (IC50) in experiment [1] was 0.4 nM; in experiment [3], 5.8 nM; in experiment [5], 0.9 nM. For the same molecule, the Kd in experiment [2] is 0.03 nM; in experiment [4], 1.54 nM.

What is called IC50 is the midpoint of a concentration-inhibition curve. By Kd is commonly meant the concentration at which binding is half-saturated. A high value points to a looser complex.
